Where two headings read alike, the source gives them in different places.

Assay in all cases: inhibition of BnzGlcA hydrolysis, coupled K-URONIC assay
Common to all, as to type: biochemical

For test [1], the target named is T1, TtCE15A (Teredinibacter turnerae, UniProt C5BN23, F174A).
T1 construct: gene TERTU_0517
From the text:
(§1) inhibition of BnzGlcA hydrolysis, coupled K-URONIC assay on TtCE15A

The target in test [2] is T2, TtCE15A (Teredinibacter turnerae, UniProt C5BN23, F174D).
T2 construct: gene TERTU_0517
T2 sequence (C5BN23 entry or part of it F174D): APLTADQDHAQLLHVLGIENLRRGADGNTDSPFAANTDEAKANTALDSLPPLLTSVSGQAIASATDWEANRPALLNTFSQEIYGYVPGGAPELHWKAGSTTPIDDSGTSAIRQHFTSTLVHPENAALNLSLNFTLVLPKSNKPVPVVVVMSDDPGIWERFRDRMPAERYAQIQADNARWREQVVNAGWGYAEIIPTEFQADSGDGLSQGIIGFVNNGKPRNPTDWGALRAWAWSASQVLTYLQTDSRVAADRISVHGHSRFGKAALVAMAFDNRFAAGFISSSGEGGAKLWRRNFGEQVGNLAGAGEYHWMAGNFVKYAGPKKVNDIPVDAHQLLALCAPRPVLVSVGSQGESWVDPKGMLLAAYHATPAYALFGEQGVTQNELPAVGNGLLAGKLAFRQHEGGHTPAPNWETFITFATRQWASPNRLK
Source text: as §1

Test [3] deals with T3, TtCE15A (Teredinibacter turnerae, UniProt C5BN23).
T3 construct: gene TERTU_0517
T3 sequence (C5BN23 entry or part of it): as the sequence (C5BN23 entry or part of it F174D) above, with D152F counted along it
Source text: as §1

T1 sequence (C5BN23 entry or part of it F174A): as the sequence (C5BN23 entry or part of it F174D) above, with D152A counted along it

`COc1cc(/C=C/C(=O)O)ccc1O` [FA, ferulic acid]: the IC50 on TtCE15A [1] (read-out: FA) was 84 ± 5 µM; on TtCE15A [2] (read-out: FA), 400 ± 40 µM; at TtCE15A [3] (read-out: FA) it was 550 ± 45 µM.
On to `COc1cc(/C=C/C(=O)O)cc(OC)c1O` [SA, sinapic acid], for which the figures for the IC50 at TtCE15A [1] (read-out: SA), on TtCE15A [2] (read-out: SA) and at TtCE15A [3] (read-out: SA) were 190 ± 22 µM, 770 ± 64 µM and 560 ± 30 µM, respectively.
As to `CO[C@@H]1C(C(=O)O)O[C@H](O[C@H]2[C@H](O[C@@H]3CO[C@@H](O[C@H](CO)[C@H](O)[C@@H](O)CO)[C@H](O)[C@H]3O)OC[C@@H](O[C@@H]3OC[C@@H](O)[C@H](O)[C@H]3O)[C@@H]2O)[C@H](O)[C@H]1O` (stereo partly drawn) [XUXXR, 2^3-(4-O-methyl-D-glucuronyl)-α-D-xylotetraitol], at TtCE15A [3] (0.4 mM BnzGlcA, pH 7.5, <10% DMSO, read-out: XUXXR), the IC50 was determined as 5510 ± 280 µM.
Regarding `O=C(O)/C=C/c1ccc(O)cc1` [pCoA, p-coumaric acid], the values for the IC50 at TtCE15A [1] (read-out: pCoA) and on TtCE15A [3] (read-out: pCoA) were 4840 ± 470 µM and 830 ± 40 µM, respectively.
